Data reported in ChEMBL document CHEMBL5150060 (J Med Chem, 2022).
Activity calls are given as the source filed them. No cut-off for these calls is given here.

Columns and labels:
HEK293 [1] = experiment: Cytotoxicity against HEK293 cells assessed as reduction in cell viability after 24 hrs by alamar blue assay; type: functional, cell-based; conditions: Homo sapiens, HEK293, 24 h
HEK293 [2] = experiment: Cytotoxicity against HEK293 cells assessed as reduction in cell viability at 50 uM after 24 hrs by alamar blue assay; type: toxicity, cell-based; conditions: human, hek293, 24 h
[3] = target: T1, Histone deacetylase 8 (Homo sapiens) (UniProt Q9BY41); experiment: Reversible binding affinity to recombinant human HDAC8 incubated for 30 mins by jump dilution method
T1 sequence (whole entry): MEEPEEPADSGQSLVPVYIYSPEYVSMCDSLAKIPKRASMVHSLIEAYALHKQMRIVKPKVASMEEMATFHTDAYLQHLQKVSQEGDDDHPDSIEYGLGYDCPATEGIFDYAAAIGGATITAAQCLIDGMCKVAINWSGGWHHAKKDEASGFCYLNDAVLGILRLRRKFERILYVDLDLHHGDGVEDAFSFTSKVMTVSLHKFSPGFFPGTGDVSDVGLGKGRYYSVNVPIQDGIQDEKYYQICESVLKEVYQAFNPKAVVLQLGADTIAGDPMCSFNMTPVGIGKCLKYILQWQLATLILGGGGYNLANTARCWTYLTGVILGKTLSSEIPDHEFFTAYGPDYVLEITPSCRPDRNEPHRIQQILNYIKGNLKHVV

[4] = Stability of compound in DMEM/DMSO/acetonitrile at pH 7.4 measured after 12 hrs by HPLC analysis; type: physicochemical; conditions: read-out: Stability
[5] = target: T2, Protein deacetylase HDAC6 (Homo sapiens, UniProt Q9UBN7); experiment: Inhibition of recombinant human HDAC6 (unknown origin)
T2 sequence (Q9UBN7 whole entry): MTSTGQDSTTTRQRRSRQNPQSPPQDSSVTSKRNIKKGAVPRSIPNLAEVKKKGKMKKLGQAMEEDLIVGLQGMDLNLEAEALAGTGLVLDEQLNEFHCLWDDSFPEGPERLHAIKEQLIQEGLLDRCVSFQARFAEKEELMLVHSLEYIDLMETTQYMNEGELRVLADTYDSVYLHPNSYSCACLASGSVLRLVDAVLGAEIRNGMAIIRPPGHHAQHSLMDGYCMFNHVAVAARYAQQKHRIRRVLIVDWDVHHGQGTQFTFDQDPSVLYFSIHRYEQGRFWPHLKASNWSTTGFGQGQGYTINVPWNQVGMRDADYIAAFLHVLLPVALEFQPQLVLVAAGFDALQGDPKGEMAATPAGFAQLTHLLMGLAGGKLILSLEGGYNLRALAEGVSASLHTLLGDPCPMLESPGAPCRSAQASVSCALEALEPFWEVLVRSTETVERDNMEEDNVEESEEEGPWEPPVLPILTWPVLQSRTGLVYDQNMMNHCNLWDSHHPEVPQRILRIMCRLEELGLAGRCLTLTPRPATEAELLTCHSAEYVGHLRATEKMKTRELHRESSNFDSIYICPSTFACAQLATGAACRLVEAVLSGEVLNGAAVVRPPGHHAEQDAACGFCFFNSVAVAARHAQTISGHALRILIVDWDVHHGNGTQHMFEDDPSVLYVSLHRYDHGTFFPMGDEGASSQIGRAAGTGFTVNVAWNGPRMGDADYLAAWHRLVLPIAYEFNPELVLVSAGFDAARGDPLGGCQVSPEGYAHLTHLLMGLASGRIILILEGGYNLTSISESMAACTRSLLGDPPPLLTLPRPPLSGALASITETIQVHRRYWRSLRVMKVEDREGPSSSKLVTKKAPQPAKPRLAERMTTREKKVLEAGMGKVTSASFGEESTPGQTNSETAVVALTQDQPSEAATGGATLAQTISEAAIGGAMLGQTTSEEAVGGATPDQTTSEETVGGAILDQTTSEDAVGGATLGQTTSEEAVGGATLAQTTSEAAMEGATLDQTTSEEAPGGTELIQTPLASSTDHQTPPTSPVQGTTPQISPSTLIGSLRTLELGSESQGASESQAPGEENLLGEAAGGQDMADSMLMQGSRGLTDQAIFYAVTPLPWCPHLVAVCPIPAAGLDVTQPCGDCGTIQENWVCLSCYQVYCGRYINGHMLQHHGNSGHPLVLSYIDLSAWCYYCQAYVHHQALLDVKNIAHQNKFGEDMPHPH

Histone deacetylase 8 [6] = target: T3, Histone deacetylase 8 (Homo sapiens, UniProt Q9BY41); experiment: Competitive inhibition of human HDAC8 using Abz-SRGGK(STFA)FFRR-NH2 (S) as substrate by Lineweaver-burk plot analysis
T3 sequence (Q9BY41 whole entry): T1 sequence (whole entry)

Histone deacetylase 3 [7] = target: T4, Histone deacetylase 3 (Homo sapiens, UniProt O15379); experiment: Inhibition of recombinant human HDAC3 using p53 (Ac-RHKK(Acetyl)-AMC) as substrate preincubated for 5 mins followed by substrate addition and measured after 30 mins by fluorescence based analysis
T4 sequence (O15379 whole entry): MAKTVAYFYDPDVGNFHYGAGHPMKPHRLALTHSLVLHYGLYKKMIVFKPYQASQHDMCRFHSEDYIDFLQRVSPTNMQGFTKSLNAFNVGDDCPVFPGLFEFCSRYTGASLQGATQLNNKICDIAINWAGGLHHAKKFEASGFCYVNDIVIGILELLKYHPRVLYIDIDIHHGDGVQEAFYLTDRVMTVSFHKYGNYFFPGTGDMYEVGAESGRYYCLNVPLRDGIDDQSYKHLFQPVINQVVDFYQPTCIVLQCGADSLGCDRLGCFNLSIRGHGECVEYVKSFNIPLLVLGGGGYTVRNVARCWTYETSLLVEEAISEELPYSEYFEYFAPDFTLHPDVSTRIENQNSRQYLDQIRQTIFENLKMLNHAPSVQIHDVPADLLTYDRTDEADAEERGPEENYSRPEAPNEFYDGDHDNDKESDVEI

[8] = Stability of compound in DMEM/DMSO/acetonitrile at pH 7.4 measured after 24 hrs by HPLC analysis; type: physicochemical; conditions: read-out: Stability
Histone deacetylase 2 [9] = target: T5, Histone deacetylase 2 (Homo sapiens, UniProt Q92769); experiment: Inhibition of recombinant human HDAC2 using p53 (Ac-RHKK(Acetyl)-AMC) as substrate preincubated for 5 mins followed by substrate addition and measured after 30 mins by fluorescence based analysis
T5 sequence (Q92769 whole entry): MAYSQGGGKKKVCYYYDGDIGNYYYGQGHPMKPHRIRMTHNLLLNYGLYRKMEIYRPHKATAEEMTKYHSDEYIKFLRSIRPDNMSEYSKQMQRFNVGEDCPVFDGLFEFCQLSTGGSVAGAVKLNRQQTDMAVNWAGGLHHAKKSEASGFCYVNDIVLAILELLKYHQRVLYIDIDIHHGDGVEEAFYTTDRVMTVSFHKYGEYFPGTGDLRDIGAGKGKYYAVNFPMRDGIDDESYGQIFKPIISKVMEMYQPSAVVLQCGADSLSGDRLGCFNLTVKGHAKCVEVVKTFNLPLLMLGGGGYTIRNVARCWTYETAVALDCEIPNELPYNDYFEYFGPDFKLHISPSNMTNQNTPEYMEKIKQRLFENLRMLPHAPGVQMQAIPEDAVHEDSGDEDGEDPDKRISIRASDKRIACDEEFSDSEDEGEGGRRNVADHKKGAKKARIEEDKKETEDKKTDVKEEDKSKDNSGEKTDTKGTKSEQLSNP

Histone deacetylase 4 = Histone deacetylase 4 (Homo sapiens, UniProt P56524); experiment: Inhibition of HDAC4 (unknown origin)
Sequence of Histone deacetylase 4 (P56524 whole entry): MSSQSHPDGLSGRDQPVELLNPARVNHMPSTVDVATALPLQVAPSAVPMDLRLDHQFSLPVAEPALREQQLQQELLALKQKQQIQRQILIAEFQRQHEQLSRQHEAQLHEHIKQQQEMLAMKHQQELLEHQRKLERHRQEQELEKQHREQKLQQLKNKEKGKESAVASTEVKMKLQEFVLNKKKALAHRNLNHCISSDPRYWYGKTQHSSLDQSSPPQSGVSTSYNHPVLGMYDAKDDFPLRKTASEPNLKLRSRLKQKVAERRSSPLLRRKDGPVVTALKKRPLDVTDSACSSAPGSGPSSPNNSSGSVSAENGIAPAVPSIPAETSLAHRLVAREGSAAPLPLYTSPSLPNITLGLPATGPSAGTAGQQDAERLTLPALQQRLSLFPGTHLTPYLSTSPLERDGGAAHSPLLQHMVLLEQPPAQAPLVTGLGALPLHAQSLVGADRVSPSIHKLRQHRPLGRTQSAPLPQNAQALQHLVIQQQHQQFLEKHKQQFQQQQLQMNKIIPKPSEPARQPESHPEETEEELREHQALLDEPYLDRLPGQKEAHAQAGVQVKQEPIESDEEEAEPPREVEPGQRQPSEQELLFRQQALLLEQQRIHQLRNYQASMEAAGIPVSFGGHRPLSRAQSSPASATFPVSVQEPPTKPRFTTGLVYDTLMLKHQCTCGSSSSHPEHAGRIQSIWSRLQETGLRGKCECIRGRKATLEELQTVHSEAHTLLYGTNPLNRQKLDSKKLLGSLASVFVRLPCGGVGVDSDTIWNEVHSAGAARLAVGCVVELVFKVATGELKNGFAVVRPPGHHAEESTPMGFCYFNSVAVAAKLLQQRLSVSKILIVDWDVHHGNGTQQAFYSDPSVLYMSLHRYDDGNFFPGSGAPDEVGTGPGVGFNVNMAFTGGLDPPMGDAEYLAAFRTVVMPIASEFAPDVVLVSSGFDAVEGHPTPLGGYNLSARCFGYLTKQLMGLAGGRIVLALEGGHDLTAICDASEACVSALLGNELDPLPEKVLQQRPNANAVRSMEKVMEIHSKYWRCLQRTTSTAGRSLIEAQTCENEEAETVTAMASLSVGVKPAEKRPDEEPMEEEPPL

[10] = Stability of compound in DMEM/DMSO/acetonitrile at pH 7.4 measured after 72 hrs by HPLC analysis; type: physicochemical; conditions: read-out: Stability
[11] = target: T1, Histone deacetylase 8 (Homo sapiens); experiment: Inhibition of HDAC8 in human Jurkat T cells assessed as increase in H3K27 acetylation at 10 uM after 6 hrs by Western blot analysis; type: cell-based
Histone deacetylase 8 [12] = target: T3, Histone deacetylase 8; experiment: Inhibition of recombinant human HDAC8 using (Abz-SRGK(thio-TFA)FFRR-NH2) as substrate preincubated for 5 mins followed by substrate addition by fluorescence based analysis
Histone deacetylase 1 [13] = target: T6, Histone deacetylase 1 (Homo sapiens, UniProt Q13547); experiment: Inhibition of recombinant human HDAC1 using p53 (Ac-RHKK(Acetyl)-AMC) as substrate preincubated for 5 mins followed by substrate addition and measured after 90 mins by fluorescence based analysis
T6 sequence (Q13547 whole entry): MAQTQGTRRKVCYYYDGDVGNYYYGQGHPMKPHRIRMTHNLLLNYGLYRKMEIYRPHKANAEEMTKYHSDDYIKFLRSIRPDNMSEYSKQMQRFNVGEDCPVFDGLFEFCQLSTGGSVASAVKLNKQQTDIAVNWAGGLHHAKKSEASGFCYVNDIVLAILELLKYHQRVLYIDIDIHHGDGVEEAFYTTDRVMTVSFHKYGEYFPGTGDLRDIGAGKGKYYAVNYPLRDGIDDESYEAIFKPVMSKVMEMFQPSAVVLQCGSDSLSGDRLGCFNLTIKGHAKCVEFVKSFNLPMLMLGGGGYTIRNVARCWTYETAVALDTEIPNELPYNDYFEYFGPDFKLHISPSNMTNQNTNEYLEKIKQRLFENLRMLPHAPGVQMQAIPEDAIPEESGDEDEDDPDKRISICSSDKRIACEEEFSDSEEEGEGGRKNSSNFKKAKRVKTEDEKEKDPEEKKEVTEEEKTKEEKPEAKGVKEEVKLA

[14] = Stability of compound in DMEM/DMSO/acetonitrile at pH 7.4 measured after 48 hrs by HPLC analysis; type: physicochemical; conditions: read-out: Stability
[15] = Stability of compound in DMEM/DMSO/acetonitrile at pH 7.4 measured after 6 hrs by HPLC analysis; type: physicochemical; conditions: read-out: Stability
Histone deacetylase 11 = target: T7, Histone deacetylase 11 (Homo sapiens, UniProt Q96DB2); experiment: Inhibition of recombinant human HDAC11 preincubated for 10 mins followed by substrate addition by fluorescence based analysis
T7 sequence (Q96DB2 whole entry): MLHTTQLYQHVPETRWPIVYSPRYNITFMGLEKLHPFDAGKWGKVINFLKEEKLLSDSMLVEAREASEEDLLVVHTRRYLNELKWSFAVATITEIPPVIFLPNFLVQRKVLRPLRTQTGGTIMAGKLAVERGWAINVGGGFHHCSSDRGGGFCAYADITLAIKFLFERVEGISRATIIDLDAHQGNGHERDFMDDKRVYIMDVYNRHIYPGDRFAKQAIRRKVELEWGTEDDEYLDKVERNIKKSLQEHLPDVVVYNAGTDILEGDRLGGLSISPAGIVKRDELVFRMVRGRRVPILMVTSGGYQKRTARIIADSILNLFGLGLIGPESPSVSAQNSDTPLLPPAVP

Histone deacetylase 2 [16] = target: T5, Histone deacetylase 2; experiment: Inhibition of recombinant human HDAC2 at 10 uM using p53 (Ac-RHKK(Acetyl)-AMC) as substrate preincubated for 5 mins followed by substrate addition and measured after 30 mins by fluorescence based analysis relative to control; conditions: time 35.0 min
Histone deacetylase 3 [17] = target: T4, Histone deacetylase 3; experiment: Inhibition of recombinant human HDAC3 at 1 uM using p53 (Ac-RHKK(Acetyl)-AMC) as substrate preincubated for 5 mins followed by substrate addition and measured after 30 mins by fluorescence based analysis relative to control; conditions: time 35.0 min
Histone deacetylase 3 [18] = target: T4, Histone deacetylase 3; experiment: Inhibition of recombinant human HDAC3 at 10 uM using p53 (Ac-RHKK(Acetyl)-AMC) as substrate preincubated for 5 mins followed by substrate addition and measured after 30 mins by fluorescence based analysis relative to control; conditions: time 35.0 min
Histone deacetylase 2 [19] = target: T5, Histone deacetylase 2; experiment: Inhibition of recombinant human HDAC2 at 1 uM using p53 (Ac-RHKK(Acetyl)-AMC) as substrate preincubated for 5 mins followed by substrate addition and measured after 30 mins by fluorescence based analysis relative to control; conditions: time 35.0 min
[20] = target: T1, Histone deacetylase 8 (Homo sapiens); experiment: Inhibition of recombinant human HDAC8 at 1 uM using (Abz-SRGK(thio-TFA)FFRR-NH2) as substrate preincubated for 5 mins followed by substrate addition by fluorescence based analysis relative to control
[21] = target: T1, Histone deacetylase 8 (Homo sapiens); experiment: Inhibition of recombinant human HDAC8 at 10 uM using (Abz-SRGK(thio-TFA)FFRR-NH2) as substrate preincubated for 5 mins followed by substrate addition by fluorescence based analysis relative to control
Histone deacetylase 1 [22] = target: T6, Histone deacetylase 1; experiment: Inhibition of recombinant human HDAC1 at 10 uM using p53 (Ac-RHKK(Acetyl)-AMC) as substrate preincubated for 5 mins followed by substrate addition and measured after 90 mins by fluorescence based analysis relative to control; conditions: time 95.0 min
Histone deacetylase 1 [23] = target: T6, Histone deacetylase 1; experiment: Inhibition of recombinant human HDAC1 at 1 uM using p53 (Ac-RHKK(Acetyl)-AMC) as substrate preincubated for 5 mins followed by substrate addition and measured after 90 mins by fluorescence based analysis relative to control; conditions: time 95.0 min

Structure (SMILES) | remaining at 12 h [4] [%] | IC50 [5] [nM] | IC50 (Histone deacetylase 3 [7]) [nM] | remaining at 24 h [8] [%] | IC50 (Histone deacetylase 2 [9]) [nM] | IC50 (Histone deacetylase 4) [nM] | remaining at 72 h [10] [%] | IC50 (Histone deacetylase 8 [12]) [nM] | IC50 (Histone deacetylase 1 [13]) [nM] | remaining at 48 h [14] [%] | remaining at 6 h [15] [%] | IC50 (Histone deacetylase 11) [nM] | inhibition (Histone deacetylase 2 [16]) [%] | inhibition (Histone deacetylase 3 [17]) [%] | inhibition (Histone deacetylase 3 [18]) [%] | inhibition (Histone deacetylase 2 [19]) [%] | inhibition [20] [%] | inhibition [21] [%] | inhibition (Histone deacetylase 1 [22]) [%] | Cell viability (HEK293 [2]) [%] | also measured
COc1cccc2c1C(=O)c1c(O)c3c(c(O)c1C2=O)C[C@@](O)(C(C)=O)C[C@@H]3O[C@H]1C[C@H](N)[C@H](O)[C@H](C)O1 [DAUNORUBICIN] | – | – | – | – | – | – | – | – | – | – | – | – | – | – | – | – | – | – | – | – | IC50 (HEK293 [1]): 1200 nM
CCCNNC(=O)c1ccc(-c2ccc(CNC(C)=O)cc2)cc1 | 97.3 | > 20000 | 91 | 94.9 | 630 | 990 | 86.8 | 700 | 1600 | 90.4 | 98.3 | 1800 | – | – | – | – | – | – | – | 83.9 | –

Further lines, with some results ahead:

remaining at 12 h [4] [%] | IC50 [5] [nM] | IC50 (Histone deacetylase 3 [7]) [nM] | remaining at 24 h [8] [%] | IC50 (Histone deacetylase 2 [9]) [nM] | IC50 (Histone deacetylase 4) [nM] | remaining at 72 h [10] [%] | IC50 (Histone deacetylase 8 [12]) [nM] | IC50 (Histone deacetylase 1 [13]) [nM] | remaining at 48 h [14] [%] | remaining at 6 h [15] [%] | IC50 (Histone deacetylase 11) [nM] | inhibition (Histone deacetylase 2 [16]) [%] | inhibition (Histone deacetylase 3 [17]) [%] | inhibition (Histone deacetylase 3 [18]) [%] | inhibition (Histone deacetylase 2 [19]) [%] | inhibition [20] [%] | inhibition [21] [%] | inhibition (Histone deacetylase 1 [22]) [%] | Structure (SMILES) | Cell viability (HEK293 [2]) [%] | also measured
83.3 | > 20000 | 30 | 82.9 | 1100 | > 20000 | 31.1 | 8.2 | 73 | 27.1 | 81.7 | 570 | – | – | – | – | – | – | – | CCCNNC(=O)c1cnc(N2CCN(Cc3c[nH]c4ccccc34)CC2)nc1 | 47 | Activity [3]: Active; Ki (Histone deacetylase 8 [6]): 5.5 nM; inhibition [11]: Active
– | – | – | – | – | – | – | – | – | – | – | – | 26 | 9 | 42 | 5 | 2 | 100 | 35 | CCCCCCNNC(=O)c1ccc(C)c(NCc2ccccc2)c1 | 41.7 | inhibition (Histone deacetylase 1 [23]): 9%
– | – | – | – | – | – | – | – | – | – | – | – | 90 | 41 | 87 | 39 | 51 | 89 | 85 | CCCNNC(=O)c1cnc(NCCc2ccccc2)nc1 | 80.5 | inhibition (Histone deacetylase 1 [23]): 51%
